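Values below derive from 48-hour exposures of cells grown in 96-well plates, with endpoints linearly interpolated between the two concentrations bracketing the appropriate inhibition level. GI50: concentration for 50% inhibition of growth.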 The source made the active and inactive calls. Rule as the data show it: active = GI50 up to about 1.1 µM and inactive = higher.
Experiments:
Assay in all cases: NCI tumour cell line growth inhibition, 48 h
786-0 = system: 786-0
ACHN = system: ACHN
BT-549 = system: BT-549
CCRF-CEM = system: CCRF-CEM
DU-145 = system: DU-145
HCT-116 = system: HCT-116
K562 = system: K562
KM12 = system: KM12
LOX IMVI = system: LOX IMVI
MCF7 = system: MCF7
NCI-H226 = system: NCI-H226
NCI-H23 = system: NCI-H23
NCI-H460 = system: NCI-H460
OVCAR-3 = system: OVCAR-3
OVCAR-8 = system: OVCAR-8
RPMI-8226 = system: RPMI-8226
RXF 393 = system: RXF 393
SK-MEL-5 = system: SK-MEL-5
SN12C = system: SN12C
UACC-62 = system: UACC-62

| Compound | GI50 (786-0) | GI50 (ACHN) | GI50 (BT-549) | GI50 (CCRF-CEM) | GI50 (DU-145) | GI50 (HCT-116) | GI50 (K562) | GI50 (KM12) | GI50 (LOX IMVI) | GI50 (MCF7) | GI50 (NCI-H226) | GI50 (NCI-H23) | GI50 (NCI-H460) | GI50 (OVCAR-3) | GI50 (OVCAR-8) | GI50 (RPMI-8226) | GI50 (RXF 393) | GI50 (SK-MEL-5) | GI50 (SN12C) | GI50 (UACC-62) |
| --- | --- | --- | --- | --- | --- | --- | --- | --- | --- | --- | --- | --- | --- | --- | --- | --- | --- | --- | --- | --- |
| O=C(NCCCl)N(O)C(=O)Nc1ccccc1 | > 100 µM (inactive) | > 100 µM (inactive) | > 100 µM (inactive) | > 100 µM (inactive) | 35.4 µM (inactive) | > 100 µM (inactive) | > 100 µM (inactive) | > 100 µM (inactive) | > 100 µM (inactive) | > 100 µM (inactive) | > 100 µM (inactive) | > 100 µM (inactive) | > 100 µM (inactive) | > 100 µM (inactive) | > 100 µM (inactive) | > 100 µM (inactive) | > 100 µM (inactive) | 98.2 µM (inactive) | > 100 µM (inactive) | > 100 µM (inactive) |
| C/C(=N/NC(=S)N(Cc1ccccn1)Cc1ccccn1)c1cnccn1 | 0.393 µM (active) | 0.306 µM (active) | 0.646 µM (active) | 0.0551 µM (active) | 0.713 µM (active) | 0.33 µM (active) | 0.519 µM (active) | 0.427 µM (active) | 0.133 µM (active) | 0.565 µM (active) | < 0.0178 µM (active) | 0.731 µM (active) | 0.601 µM (active) | 0.646 µM (active) | 0.0303 µM (active) | 0.373 µM (active) | 2.52 µM (inactive) | 0.432 µM (active) | 0.208 µM (active) | 0.537 µM (active) |
| CCCCCCCCCCCCCCCCC(C(=O)O)C(O)(CC(=O)O)C(=O)O (stereo not given) | 35.2 µM (inactive) | 40.6 µM (inactive) | 20.3 µM (inactive) | 27.1 µM (inactive) | 35.6 µM (inactive) | 19.1 µM (inactive) | 35.2 µM (inactive) | 21.2 µM (inactive) | 26.5 µM (inactive) | 34.9 µM (inactive) | 22.6 µM (inactive) | 29 µM (inactive) | 17.5 µM (inactive) | 18.5 µM (inactive) | 39.1 µM (inactive) | 26.7 µM (inactive) | 22.1 µM (inactive) | 39.1 µM (inactive) | 21.7 µM (inactive) | 18.2 µM (inactive) |
| O=[N+]([O-])c1ccc(CN(CCCl)OCCCl)cc1 | > 100 µM (inactive) | 64.3 µM (inactive) | > 100 µM (inactive) | 35.5 µM (inactive) | > 100 µM (inactive) | 80.7 µM (inactive) | 33.8 µM (inactive) | > 100 µM (inactive) | 55.7 µM (inactive) | 83.4 µM (inactive) | > 100 µM (inactive) | 76.7 µM (inactive) | > 100 µM (inactive) | > 100 µM (inactive) | > 100 µM (inactive) | 98.6 µM (inactive) | > 100 µM (inactive) | 51.3 µM (inactive) | > 100 µM (inactive) | 55.8 µM (inactive) |
| COP1(=O)NCc2ncccc2O1 (stereo not given) | > 100 µM (inactive) | > 100 µM (inactive) | > 100 µM (inactive) | > 100 µM (inactive) | > 100 µM (inactive) | > 100 µM (inactive) | > 100 µM (inactive) | > 100 µM (inactive) | > 100 µM (inactive) | > 100 µM (inactive) | > 100 µM (inactive) | > 100 µM (inactive) | > 100 µM (inactive) | > 100 µM (inactive) | > 100 µM (inactive) | > 100 µM (inactive) | > 100 µM (inactive) | > 100 µM (inactive) | > 100 µM (inactive) | > 100 µM (inactive) |
| O=C(O)c1ccccc1NC(c1ccccc1)c1ccc2cccnc2c1O (stereo not given) | 4.39 µM (inactive) | 9.18 µM (inactive) | 11 µM (inactive) | 1.93 µM (inactive) | 18.7 µM (inactive) | 3.65 µM (inactive) | 8.87 µM (inactive) | 5.31 µM (inactive) | 7.96 µM (inactive) | 4.85 µM (inactive) | 4.27 µM (inactive) | 12.6 µM (inactive) | 4.03 µM (inactive) | 3.63 µM (inactive) | 4.85 µM (inactive) | 3.04 µM (inactive) | 10 µM (inactive) | 8.39 µM (inactive) | 6.58 µM (inactive) | 11.6 µM (inactive) |
| COc1cc(C(=O)N(C)N(C)C)cc(OC)c1OC | > 10 µM (inactive) | > 10 µM (inactive) | > 10 µM (inactive) | > 10 µM (inactive) | > 10 µM (inactive) | > 10 µM (inactive) | > 10 µM (inactive) | > 10 µM (inactive) | > 10 µM (inactive) | > 10 µM (inactive) | > 10 µM (inactive) | > 10 µM (inactive) | > 10 µM (inactive) | > 10 µM (inactive) | > 10 µM (inactive) | > 10 µM (inactive) | > 10 µM (inactive) | > 10 µM (inactive) | > 10 µM (inactive) | > 10 µM (inactive) |
